Measurements: the NIST ThermoML archive (doi:10.1016/j.tca.2015.08.013)

Details: for surface tension liquid-gas: Drop volume; for mass density / kinematic viscosity / speed of sound / vapor or sublimation pressure: Liquid; for mass density: Vibrating tube method; for kinematic viscosity / speed of sound: 101.33 kPa; for kinematic viscosity: Capillary tube (Ostwald / Ubbelohde) method; for speed of sound: Sing-around technique in a fixed-path interferometer; for vapor or sublimation pressure: Ebulliometric method (Recirculating still)

c1ccoc1 [furan]
Details	kinematic viscosity [m2/s]	speed of sound [m/s]	surface tension liquid-gas [mN/m]	vapor or sublimation pressure [kPa]
278.15 K	4.59e-07	1228.1	26.03	–
280.65 K	4.48e-07	1216.2	25.69	–
283.15 K	4.39e-07	1204.5	25.32	–
284.4 K	–	–	–	45.59
285.65 K	4.3e-07	1192.8	24.97	–
285.86 K	–	–	–	48.66
287.16 K	–	–	–	51.63
288.15 K	4.2e-07	1181	24.59	–
288.34 K	–	–	–	54.23
289.2 K	–	–	–	56.05
290.4 K	–	–	–	59.18
290.65 K	4.09e-07	1169.2	24.18	–
291.7 K	–	–	–	62.26
292.2 K	–	–	–	63.6
292.79 K	–	–	–	64.53
293.15 K	3.99e-07	1157.4	23.79	–
294.55 K	–	–	–	69.25
295.55 K	–	–	–	72.4
295.65 K	3.89e-07	1145.3	23.35	–
296.9 K	–	–	–	76.25
297.36 K	–	–	–	77.63
298.15 K	3.79e-07	1133.1	22.94	–
298.44 K	–	–	–	80.9
299.63 K	–	–	–	84.59
300.65 K	3.7e-07	1120.9	22.55	–
300.76 K	–	–	–	88.22
301.52 K	–	–	–	90.81
302.4 K	–	–	–	93.89
303.15 K	3.61e-07	1108.8	22.08	–
303.86 K	–	–	–	99.07
304.46 K	–	–	–	101.33

Details	mass density [kg/m3]
278.15 K, 99 kPa	959.086
280.65 K, 99 kPa	955.729
283.15 K, 99 kPa	952.358
283.15 K, 100 kPa	952.36
283.15 K, 2500 kPa	954.38
283.15 K, 5000 kPa	956.94
283.15 K, 7500 kPa	959.39
283.15 K, 10000 kPa	961.81
283.15 K, 20000 kPa	970.97
283.15 K, 30000 kPa	979.35
283.15 K, 40000 kPa	987.2
283.15 K, 50000 kPa	994.5
283.15 K, 60000 kPa	1001.42
285.65 K, 99 kPa	948.976
288.15 K, 99 kPa	945.579
288.15 K, 100 kPa	945.58
288.15 K, 2500 kPa	947.81
288.15 K, 5000 kPa	950.42
288.15 K, 7500 kPa	953.03
288.15 K, 10000 kPa	955.59
288.15 K, 20000 kPa	965.03
288.15 K, 30000 kPa	973.69
288.15 K, 40000 kPa	981.69
288.15 K, 50000 kPa	989.18
288.15 K, 60000 kPa	996.21
290.65 K, 99 kPa	942.167
293.15 K, 99 kPa	938.739
293.15 K, 100 kPa	938.74
293.15 K, 2500 kPa	940.99
293.15 K, 5000 kPa	943.7
293.15 K, 7500 kPa	946.38
293.15 K, 10000 kPa	948.97
293.15 K, 20000 kPa	958.75
293.15 K, 30000 kPa	967.71
293.15 K, 40000 kPa	976.04
293.15 K, 50000 kPa	983.77
293.15 K, 60000 kPa	990.98
295.65 K, 99 kPa	935.294
298.15 K, 99 kPa	931.835
298.15 K, 100 kPa	931.84
298.15 K, 2500 kPa	934.31
298.15 K, 5000 kPa	937.14
298.15 K, 7500 kPa	939.92
298.15 K, 10000 kPa	942.68
298.15 K, 20000 kPa	952.79
298.15 K, 30000 kPa	961.99
298.15 K, 40000 kPa	970.53
298.15 K, 50000 kPa	978.42
298.15 K, 60000 kPa	985.81
300.65 K, 99 kPa	928.357
303.15 K, 99 kPa	924.861
303.15 K, 100 kPa	924.86
303.15 K, 2500 kPa	927.4
303.15 K, 5000 kPa	930.33
303.15 K, 7500 kPa	933.21
303.15 K, 10000 kPa	936
303.15 K, 20000 kPa	946.46
303.15 K, 30000 kPa	956.04
303.15 K, 40000 kPa	964.82
303.15 K, 50000 kPa	972.99
303.15 K, 60000 kPa	980.62
308.15 K, 2500 kPa	920.6
308.15 K, 5000 kPa	923.71
308.15 K, 7500 kPa	926.73
308.15 K, 10000 kPa	929.66
308.15 K, 20000 kPa	940.5
308.15 K, 30000 kPa	950.3
308.15 K, 40000 kPa	959.34
308.15 K, 50000 kPa	967.69
308.15 K, 60000 kPa	975.44
313.15 K, 2500 kPa	913.48
313.15 K, 5000 kPa	916.68
313.15 K, 7500 kPa	919.8
313.15 K, 10000 kPa	922.81
313.15 K, 20000 kPa	934.04
313.15 K, 30000 kPa	944.27
313.15 K, 40000 kPa	953.57
313.15 K, 50000 kPa	962.21
313.15 K, 60000 kPa	970.23
318.15 K, 2500 kPa	906.59
318.15 K, 5000 kPa	909.88
318.15 K, 7500 kPa	913.18
318.15 K, 10000 kPa	916.44
318.15 K, 20000 kPa	928.06
318.15 K, 30000 kPa	938.56
318.15 K, 40000 kPa	948.09
318.15 K, 50000 kPa	956.88
318.15 K, 60000 kPa	965.06
323.15 K, 2500 kPa	899.25
323.15 K, 5000 kPa	902.71
323.15 K, 7500 kPa	906.1
323.15 K, 10000 kPa	909.42
323.15 K, 20000 kPa	921.53
323.15 K, 30000 kPa	932.47
323.15 K, 40000 kPa	942.39
323.15 K, 50000 kPa	951.44
323.15 K, 60000 kPa	959.86
328.15 K, 2500 kPa	892.18
328.15 K, 5000 kPa	895.9
328.15 K, 7500 kPa	899.49
328.15 K, 10000 kPa	902.97
328.15 K, 20000 kPa	915.52
328.15 K, 30000 kPa	926.72
328.15 K, 40000 kPa	936.8
328.15 K, 50000 kPa	946.08
328.15 K, 60000 kPa	954.71
333.15 K, 2500 kPa	884.69
333.15 K, 5000 kPa	888.51
333.15 K, 7500 kPa	892.17
333.15 K, 10000 kPa	895.74
333.15 K, 20000 kPa	908.84
333.15 K, 30000 kPa	920.52
333.15 K, 40000 kPa	931.04
333.15 K, 50000 kPa	940.62
333.15 K, 60000 kPa	949.48
338.15 K, 2500 kPa	877.34
338.15 K, 5000 kPa	881.44
338.15 K, 7500 kPa	885.37
338.15 K, 10000 kPa	889.16
338.15 K, 20000 kPa	902.71
338.15 K, 30000 kPa	914.72
338.15 K, 40000 kPa	925.5
338.15 K, 50000 kPa	935.32
338.15 K, 60000 kPa	944.34
